Test results from publication PMC11683478, “Bioprospecting of culturable marine biofilm bacteria for novel antimicrobial peptides” (iMeta, 2024).

Legend:
Experiment in all cases: Antibacterial screen at 200 μg/mL (cell density vs control)
Assay type in all cases: cell-based
Settings in all cases: peptide 200 μg/mL, CAMHB, 5 × 10^5 CFU/mL, 37°C, 12 h, OD600; control (no AMP) = 1; three biological replicates
[1] = tested on: Acinetobacter baumannii ATCC 19606
Summary of the method: (§1)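 For the MIC, the lowest peptide concentration without visible bacterial growth was recorded. Density screening used log-phase cells diluted to 5 × 10^5 CFU/mL in CAMHB with 200 μg/mL peptide, OD600 measured after 12 h incubation at 37°C.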

[2] = tested on: Bacillus subtilis ATCC 23857
Summary of the method: as §1

[3] = tested on: Escherichia coli ATCC 11775
Summary of the method: as §1

[4] = tested on: Micrococcus luteus ATCC 4698
Summary of the method: as §1

[5] = tested on: Salmonella bongori ATCC 43975
Summary of the method: as §1

[6] = tested on: Staphylococcus aureus ATCC 12600
Summary of the method: as §1

[7] = tested on: Vibrio alginolyticus xv22
Summary of the method: as §1

Vibrio owensii ems001 = tested on: Vibrio owensii ems001
Summary of the method: as §1

## MRKGCKLIPCICDVNCRRRTG [Cand-8, chemically synthesized candidate AMP predicted from marine biofilm bacteria]
[1]
  cell density relative to control, A. baumannii ATCC 19606: 0.201
[2]
  cell density relative to control, B. subtilis ATCC 23857: 0.257
[3]
  cell density relative to control, E. coli ATCC 11775: 0
[4]
  cell density relative to control, M. luteus ATCC 4698: 0
[5]
  cell density relative to control, S. bongori ATCC 43975: 0
[6]
  cell density relative to control, S. aureus ATCC 12600: 0.364
[7]
  cell density relative to control, V. alginolyticus xv22: 0.286
Vibrio owensii ems001
  cell density relative to control, V. owensii ems001: 0.653

## MRPCMCRIGGGH [Cand-13, chemically synthesized candidate AMP predicted from marine biofilm bacteria]
[1]
  cell density relative to control, A. baumannii ATCC 19606: 0.816
[2]
  cell density relative to control, B. subtilis ATCC 23857: 1
[3]
  cell density relative to control, E. coli ATCC 11775: 1
[4]
  cell density relative to control, M. luteus ATCC 4698: 1
[5]
  cell density relative to control, S. bongori ATCC 43975: 0.926
[6]
  cell density relative to control, S. aureus ATCC 12600: 0.795
[7]
  cell density relative to control, V. alginolyticus xv22: 0.942
Vibrio owensii ems001
  cell density relative to control, V. owensii ems001: 1

## MRPCMCRIGGRL [Cand-19, chemically synthesized candidate AMP predicted from marine biofilm bacteria]
[1]
  cell density relative to control, A. baumannii ATCC 19606: 1
[2]
  cell density relative to control, B. subtilis ATCC 23857: 1
[3]
  cell density relative to control, E. coli ATCC 11775: 1
[4]
  cell density relative to control, M. luteus ATCC 4698: 1
[5]
  cell density relative to control, S. bongori ATCC 43975: 0.929
[6]
  cell density relative to control, S. aureus ATCC 12600: 1
[7]
  cell density relative to control, V. alginolyticus xv22: 1
Vibrio owensii ems001
  cell density relative to control, V. owensii ems001: 1

## MRPGMCRIGGRL [Cand-22, chemically synthesized candidate AMP predicted from marine biofilm bacteria]
[1]
  cell density relative to control, A. baumannii ATCC 19606: 1
[2]
  cell density relative to control, B. subtilis ATCC 23857: 1
[3]
  cell density relative to control, E. coli ATCC 11775: 1
[4]
  cell density relative to control, M. luteus ATCC 4698: 1
[5]
  cell density relative to control, S. bongori ATCC 43975: 0.876
[6]
  cell density relative to control, S. aureus ATCC 12600: 0.777
[7]
  cell density relative to control, V. alginolyticus xv22: 0.862
Vibrio owensii ems001
  cell density relative to control, V. owensii ems001: 1

## MRPRLRKRLLR [Cand-187, chemically synthesized candidate AMP predicted from marine biofilm bacteria]
[1]
  cell density relative to control, A. baumannii ATCC 19606: 0.766
[2]
  cell density relative to control, B. subtilis ATCC 23857: 0.002
[3]
  cell density relative to control, E. coli ATCC 11775: 0.674
[4]
  cell density relative to control, M. luteus ATCC 4698: 0.703
[5]
  cell density relative to control, S. bongori ATCC 43975: 0.256
[6]
  cell density relative to control, S. aureus ATCC 12600: 0.68
[7]
  cell density relative to control, V. alginolyticus xv22: 0.84
Vibrio owensii ems001
  cell density relative to control, V. owensii ems001: 1

## MRPSMCRIGGRL [Cand-38, chemically synthesized candidate AMP predicted from marine biofilm bacteria]
[1]
  cell density relative to control, A. baumannii ATCC 19606: 0.836
[2]
  cell density relative to control, B. subtilis ATCC 23857: 0.805
[3]
  cell density relative to control, E. coli ATCC 11775: 0.861
[4]
  cell density relative to control, M. luteus ATCC 4698: 1
[5]
  cell density relative to control, S. bongori ATCC 43975: 1
[6]
  cell density relative to control, S. aureus ATCC 12600: 0.771
[7]
  cell density relative to control, V. alginolyticus xv22: 1
Vibrio owensii ems001
  cell density relative to control, V. owensii ems001: 1

## MRQGMCRIGGRL [Cand-55, chemically synthesized candidate AMP predicted from marine biofilm bacteria]
[1]
  cell density relative to control, A. baumannii ATCC 19606: 0.845
[2]
  cell density relative to control, B. subtilis ATCC 23857: 0.908
[3]
  cell density relative to control, E. coli ATCC 11775: 0.915
[4]
  cell density relative to control, M. luteus ATCC 4698: 1
[5]
  cell density relative to control, S. bongori ATCC 43975: 1
[6]
  cell density relative to control, S. aureus ATCC 12600: 0.793
[7]
  cell density relative to control, V. alginolyticus xv22: 0
Vibrio owensii ems001
  cell density relative to control, V. owensii ems001: 1

## MRRFCCCRCSCCCWPS [Cand-25, chemically synthesized candidate AMP predicted from marine biofilm bacteria]
[1]
  cell density relative to control, A. baumannii ATCC 19606: 1
[2]
  cell density relative to control, B. subtilis ATCC 23857: 1
[3]
  cell density relative to control, E. coli ATCC 11775: 0.835
[4]
  cell density relative to control, M. luteus ATCC 4698: 1
[5]
  cell density relative to control, S. bongori ATCC 43975: 0.847
[6]
  cell density relative to control, S. aureus ATCC 12600: 0.422
[7]
  cell density relative to control, V. alginolyticus xv22: 1
Vibrio owensii ems001
  cell density relative to control, V. owensii ems001: 0.067

## MRVGMCRIGGRL [Cand-79, chemically synthesized candidate AMP predicted from marine biofilm bacteria]
[1]
  cell density relative to control, A. baumannii ATCC 19606: 0.975
[2]
  cell density relative to control, B. subtilis ATCC 23857: 0.837
[3]
  cell density relative to control, E. coli ATCC 11775: 0.73
[4]
  cell density relative to control, M. luteus ATCC 4698: 1
[5]
  cell density relative to control, S. bongori ATCC 43975: 0.975
[6]
  cell density relative to control, S. aureus ATCC 12600: 0.728
[7]
  cell density relative to control, V. alginolyticus xv22: 0.8
Vibrio owensii ems001
  cell density relative to control, V. owensii ems001: 1

## MSCDLQKVRGCLPRLIVHK [Cand-142, chemically synthesized candidate AMP predicted from marine biofilm bacteria]
[1]
  cell density relative to control, A. baumannii ATCC 19606: 1
[2]
  cell density relative to control, B. subtilis ATCC 23857: 1
[3]
  cell density relative to control, E. coli ATCC 11775: 1
[4]
  cell density relative to control, M. luteus ATCC 4698: 1
[5]
  cell density relative to control, S. bongori ATCC 43975: 0.989
[6]
  cell density relative to control, S. aureus ATCC 12600: 0.941
[7]
  cell density relative to control, V. alginolyticus xv22: 1
Vibrio owensii ems001
  cell density relative to control, V. owensii ems001: 1

## MSKIKAKIGHLR [Cand-98, chemically synthesized candidate AMP predicted from marine biofilm bacteria]
[1]
  cell density relative to control, A. baumannii ATCC 19606: 0.74
[2]
  cell density relative to control, B. subtilis ATCC 23857: 1
[3]
  cell density relative to control, E. coli ATCC 11775: 0.765
[4]
  cell density relative to control, M. luteus ATCC 4698: 1
[5]
  cell density relative to control, S. bongori ATCC 43975: 1
[6]
  cell density relative to control, S. aureus ATCC 12600: 0.721
[7]
  cell density relative to control, V. alginolyticus xv22: 1
Vibrio owensii ems001
  cell density relative to control, V. owensii ems001: 1

## MSPRICSVISCLMKLRC [Cand-11, chemically synthesized candidate AMP predicted from marine biofilm bacteria]
[1]
  cell density relative to control, A. baumannii ATCC 19606: 0.023
[2]
  cell density relative to control, B. subtilis ATCC 23857: 1
[3]
  cell density relative to control, E. coli ATCC 11775: 0.967
[4]
  cell density relative to control, M. luteus ATCC 4698: 0.931
[5]
  cell density relative to control, S. bongori ATCC 43975: 0.522
[6]
  cell density relative to control, S. aureus ATCC 12600: 0.019
[7]
  cell density relative to control, V. alginolyticus xv22: 0.018
Vibrio owensii ems001
  cell density relative to control, V. owensii ems001: 0.023

## MTWPSRSRMWRTC [Cand-129, chemically synthesized candidate AMP predicted from marine biofilm bacteria]
[1]
  cell density relative to control, A. baumannii ATCC 19606: 1
[2]
  cell density relative to control, B. subtilis ATCC 23857: 0.061
[3]
  cell density relative to control, E. coli ATCC 11775: 0.692
[4]
  cell density relative to control, M. luteus ATCC 4698: 0.751
[5]
  cell density relative to control, S. bongori ATCC 43975: 0.704
[6]
  cell density relative to control, S. aureus ATCC 12600: 0.012
[7]
  cell density relative to control, V. alginolyticus xv22: 0.004
Vibrio owensii ems001
  cell density relative to control, V. owensii ems001: 0.021

## MVKLLKKMVSLYH [Cand-122, chemically synthesized candidate AMP predicted from marine biofilm bacteria]
[1]
  cell density relative to control, A. baumannii ATCC 19606: 0.907
[2]
  cell density relative to control, B. subtilis ATCC 23857: 0.002
[3]
  cell density relative to control, E. coli ATCC 11775: 0.642
[4]
  cell density relative to control, M. luteus ATCC 4698: 0.728
[5]
  cell density relative to control, S. bongori ATCC 43975: 0.455
[6]
  cell density relative to control, S. aureus ATCC 12600: 0
[7]
  cell density relative to control, V. alginolyticus xv22: 1
Vibrio owensii ems001
  cell density relative to control, V. owensii ems001: 0.188
